Assay results published in ChEMBL document CHEMBL3994652, “Cytotoxic clerodane diterpenoids from Croton crassifolius” (Bioorg Med Chem Lett, 2017).
Active and inactive are the calls of the source. The calls are words filed in the database; no cut-off is given here.

Key:
HepG2 [1] = assay: Cytotoxicity against human HepG2 cells assessed as growth inhibition at 100 uM after 48 hrs by MTT assay; assay type: functional, cell-based
Hep 3B2 [2] = assay: Cytotoxicity against human Hep3B cells assessed as growth inhibition at 100 uM after 48 hrs by MTT assay; assay type: functional, cell-based
HepG2 [3] = assay: Cytotoxicity against human HepG2 cells assessed as growth inhibition after 48 hrs by MTT assay; assay type: functional, cell-based; details: HepG2, 48 h
Hep 3B2 [4] = assay: Cytotoxicity against human Hep3B cells assessed as growth inhibition after 48 hrs by MTT assay; assay type: functional, cell-based
Hep 3B2 [5] = assay: Induction of apoptosis in human Hep3B cells assessed as cell shrinkage at 20 uM after 48 hrs by acridine orange dye-based fluorescence microscopy; assay type: functional
Hep 3B2 [6] = assay: Induction of apoptosis in human Hep3B cells assessed as formation of apoptotic bodies at 20 uM after 48 hrs by acridine orange dye-based fluorescence microscopy; assay type: functional, cell-based
Hep 3B2 [7] = assay: Induction of apoptosis in human Hep3B cells assessed as chromatin condensation at 20 uM after 48 hrs by acridine orange dye-based fluorescence microscopy; assay type: functional, cell-based
Hep 3B2 [8] = assay: Induction of apoptosis in human Hep3B cells assessed as reduction in pro-caspase 3 level at 10 to 40 uM after 48 hrs by Western blot method; assay type: functional, cell-based
Hep 3B2 [9] = assay: Induction of apoptosis in human Hep3B cells assessed as increase in cleaved caspase 3 level at 10 to 40 uM after 48 hrs by Western blot method; assay type: functional, cell-based
Hep 3B2 [10] = assay: Induction of apoptosis in human Hep3B cells assessed as cleaved PARP level after 48 hrs by Western blot method; assay type: functional, cell-based

Row | Compound | growth inhibition (GI) (HepG2 [1]) | growth inhibition (GI) (Hep 3B2 [2]) | IC50 (HepG2 [3]) [µM] | IC50 (Hep 3B2 [4]) [µM] | Activity (Hep 3B2 [5]) | Activity (Hep 3B2 [6]) | Activity (Hep 3B2 [7]) | Activity (Hep 3B2 [8]) | Activity (Hep 3B2 [9]) | Activity (Hep 3B2 [10])
1 | C[C@H]1C[C@@H]2OC(=O)[C@]3(C)CCCC(=C23)[C@]12C[C@H](c1ccoc1)OC2=O | Active | Active | 17.9 | 42 | Active | Active | Active | Active | Active | Dose-dependent effect
2 | O=c1[nH]cc(F)c(=O)[nH]1 [FLUOROURACIL] | – | – | – | 49.7 | – | – | – | – | – | –
3 | COC(=O)[C@@]1(C)CC(=O)C=C2C1=CC[C@@H](C)[C@]2(C)CC(=O)c1ccoc1 | Active | – | – | 51.6 | – | – | – | – | – | –
